Earlier results on 3 compounds are cited in patent US6004969A (National Science Council, priority 1997, dated 1999).

The conditions of data set [1]: oral administration; words.
The subject of data set [2] is animal paw swelling. To be noted: topical use; words.

Each structure is given as a SMILES string.

With `CO[C@]12CC[C@@]3(C[C@@H]1[C@](C)(O)C(C)(C)C)[C@H]1Cc4ccc(O)c5c4[C@@]3(CCN1CC1CC1)[C@H]2O5` [Buprenorphine, 21-cyclo-propylmethyl-7-α-[(S)-1-hydroxy-1,2,2-trimethylpropyl]-6,14-endoethano-6,7,8,14-tetrahydroripavine], in data set [1], the first pass effect result is given as “high first pass effect” and the gastrointestinal absorption result is recorded as “poor gastrointestinal absorption”.

Regarding `CC1(C)[C@@H](O)CC[C@]2(C)[C@H]3C(=O)C=C4[C@@H]5C[C@@](C)(C(=O)O)CC[C@]5(C)CC[C@@]4(C)[C@]3(C)CC[C@@H]12` [glycyrrhetinic acid], in data set [2], the “inhibition of animal paw swelling” value was “can inhibit animal paw swelling”. Consider `CC1(C)[C@@H](O[C@H]2O[C@H](C(=O)O)[C@@H](O)[C@H](O)[C@H]2O[C@@H]2O[C@H](C(=O)O)[C@@H](O)[C@H](O)[C@H]2O)CC[C@]2(C)[C@H]3C(=O)C=C4[C@@H]5C[C@@](C)(C(=O)O)CC[C@]5(C)CC[C@@]4(C)[C@]3(C)CC[C@@H]12` [glycyrrhizic acid], for which the “inhibition of animal paw swelling” value in data set [2] is “can inhibit animal paw swelling”.
